Source: article PMC5769330, “Flaxseed-enriched diets change milk concentration of the antimicrobial danofloxacin in sheep” (BMC Veterinary Research, 2018)
Where a name gives a salt, the structure may show the parent alone. Read-outs that look alike come from different tables or passages of the source.

How the values were obtained:
[1] = Enterolignans and conjugates in plasma and milk of sheep fed flaxseed-enriched diets (UPLC-QTOF-MS); type: in vivo; conditions: qualitative
Procedure: Eighteen lactating […] (3-4 months in lactation and weighing 66-105 kg) were used and milked twice daily. The animals were parasite-free, and drinking water was available ad libitum. The experimental design was performed with animals stratified according to milk production and number of days post-partum, and then randomly distributed in the experimental groups. The animals were divided into 3 diet groups of 6 animals each. One group of sheep was fed a standard diet, a second group was fed a lignan-enriched diet containing 10% whole flaxseed (Nutricor SL, Leon, Spain) for 2 weeks, and a third group was fed a lignan-enriched diet containing 15% whole flaxseed (Nutricor SL) also for 2 weeks (diet composition is shown in Table 1). Flaxseed amounts and duration of treatment were chosen based on previous studies on cows. Whole flaxseed composition included 20.2% of crude protein, 13.1% of crude fiber and 28.5% of ether extract. All sheep were fed ad libitum twice per day after each milking (09.00 and 18.00 h). Feed intake was not affected by the different experimental diets. […] [29]. The dry residue was dissolved in methanol and filtered (0.22 μm) prior to injection into the ultra-performance liquid chromatography quadrupole time-of-flight mass spectrometry (UPLC-QTOF-MS) equipment. Analyses were developed using an Agilent 1290 Infinity LC system coupled to a 6550 Accurate-Mass QTOF (Agilent Technologies, Waldbronn, Germany) and using an electrospray interface (Jet Stream Technology). Analytical conditions were as previously described with some modifications. Briefly, 5 μL of sample was injected onto a reverse phase Poroshell 120 EC-C18 column (3 × 100 mm, 2.7 μm) (Agilent Technologies) operating at 30 °C. […] The electrospray interface parameters were as follows: gas temperature, 280 °C; drying gas flow, 9 L/min; nebulizer pressure, 35 psi; sheath gas temperature, 400 °C; sheath gas flow, 12 L/min. Spectra were acquired in the m/z range from 100 to 1100 in negative mode and fragmentor voltage was 100 V. Data were processed using Mass Hunter Qualitative Analysis software (version B.06.00 Agilent Technologies). A target screening strategy was applied to plasma and milk samples for the qualitative screening of possible enterolignan-related metabolites. A list of target compounds (60 possible metabolites) covering different phase I and phase II metabolites of parent compound and microbial metabolites was sought in all the samples after MS full-acquisition. Screening was based on mass filtering at the exact mass of the studied compound using narrow mass extraction windows (0.01 m/z). Identification was possible from the valuable information given in QTOF-MS acquisition mode which provides possible molecular formulae for the compounds based on accurate mass and isotopic pattern (Table 2). Additionally, a targeted MS/MS experiment offered fragmentation information for greater reliability in the compound identification process. When possible, direct comparison with authentic standards was performed. Quantification of enterolactone and enterodiol was determined by interpolation in the calibration curve obtained from their own available standards. These metabolites were quantified in MS by peak area integration of their extracted ion chromatograms. Calibration curves were linear from the limit of quantification (LOQ) to 500 nmol/L. […] In the case of conjugated metabolites accurate quantification was not possible due to the absence of available standards and so only qualitative results are provided.

[2] = effect of isoflavones present in soy; cited from earlier work
[3] = Plasma pharmacokinetics of danofloxacin after i.m. administration to lactating sheep fed control or flaxseed-enriched diets; type: in vivo; conditions: female, Assaf, im, 1.25 mg/kg, 1.25 mg/kg i.m., mean ± SD; for AUC(0-inf) / Cmax / MRT / Tmax: n = 6; for AUC(0-t): n = 6, read-out: AUC 0–24
Procedure: (§1) Eighteen lactating […] (3-4 months in lactation and weighing 66-105 kg) were used and milked twice daily. The animals were parasite-free, and drinking water was available ad libitum. The experimental design was performed with animals stratified according to milk production and number of days post-partum, and then randomly distributed in the experimental groups. The animals were divided into 3 diet groups of 6 animals each. One group of sheep was fed a standard diet, a second group was fed a lignan-enriched diet containing 10% whole flaxseed (Nutricor SL, Leon, Spain) for 2 weeks, and a third group was fed a lignan-enriched diet containing 15% whole flaxseed (Nutricor SL) also for 2 weeks (diet composition is shown in Table 1). Flaxseed amounts and duration of treatment were chosen based on previous studies on cows. Whole flaxseed composition included 20.2% of crude protein, 13.1% of crude fiber and 28.5% of ether extract. All sheep were fed ad libitum twice per day after each milking (09.00 and 18.00 h). Feed intake was not affected by the different experimental diets. After 2 weeks on the experimental diets, animals in all groups received a single therapeutic dose (1.25 mg/kg, i.m.) of danofloxacin (Advocin 2.5%, Pfizer, Cedex, France). Blood samples (5 mL) were collected from the jugular vein in commercial blood collection tubes (Vacutainer, 10 mL; […] The pharmacokinetic schedule was based on previous studies from our group. […] A complete evacuation of the udder was carried out at each sampling to avoid any dilution effect. Samples were stored at - 20 °C until analysis. Conditions for HPLC analysis of danofloxacin concentrations in plasma and milk were modified according to previously published methods. […] To each 100 μL aliquot of sample, 600 μL of chloroform was added. […] The residue was reconstituted in 100 μL of methanol and injected into the HPLC system. The system consisted of a Waters 600 pump, a Waters 717 plus autosampler, and a Waters 486 fluorescence detector (Waters Corporation, Milford, MA). […] The mobile phase consisted of 25 mM orthophosphoric acid supplemented with 0.1% triethylamine (pH 3.0): acetonitrile (80:20 v/v) at a flow rate of 1.6 mL/min. Sample detection was performed by fluorescence detection at 338 nm (excitation) and 425 nm (emission). Integration was carried out using MILLENNIUM 32 software (Waters). […] Correlation coefficients (r) for danofloxacin ranged between 0.998 and 0.984 for the calibration curves in plasma and milk curves respectively. LOQ were 1.9 ng/mL for sheep plasma and 19 ng/mL for sheep milk. Peak concentration (Cmax) and time-peak concentrations (Tmax) were read from the plotted concentration-time curve for each animal. The area under the plasma concentration-time curves (AUC) was calculated using the linear trapezoidal rule. Mean residence time (MRT) was calculated by the linear trapezoidal rule with extrapolation to time infinity, using the formula: MRT = AUMC/AUC, where AUMC is the mean area under the first moment curve. These calculations were made with a computer program (PK solution 2.0, Summit Research Services, Ashland, OH) and determined by non-compartmental analyses.

[4] = Milk pharmacokinetics (secretion into milk) of danofloxacin after i.m. administration to lactating sheep fed control or flaxseed-enriched diets; type: in vivo; conditions: 1.25 mg/kg i.m.; for Kp / AUC(0-t) / AUC(0-inf) / Cmax / MRT / Tmax: female, Assaf, sheep, 1.25 mg/kg, mean ± SD, n = 6; for Kp: milk and plasma, intramuscular, read-out: AUC 0–24 milk/plasma; for AUC(0-t) / AUC(0-inf) / Cmax / MRT / Tmax: milk, im; for AUC(0-t): read-out: AUC 0–24
Procedure: as §1

[5] = sheep fed flaxseed-enriched diets vs. control diet

Compound: O=C(O)[C@H]1O[C@@H](Oc2cccc(C[C@@H](CO)[C@H](CO)Cc3cccc(O)c3)c2)[C@H](O)[C@@H](O)[C@@H]1O [Enterodiol- glucuronide]
- Localization (matrix in which the compound was identified) [1]: Plasma

Compound: O=S(=O)(O)Oc1cccc(C[C@@H](CO)[C@H](CO)Cc2cccc(O)c2)c1 [Enterodiol- sulfate]
- Localization (matrix in which the compound was identified) [1]: Plasma

Compound: OC[C@H](Cc1cccc(O)c1)[C@H](CO)Cc1cccc(O)c1 [Enterodiol]
- Localization (matrix in which the compound was identified) [1]: Plasma, milk

Compound: O=C1OC[C@H](Cc2cccc(O)c2)[C@H]1Cc1cccc(O)c1 [Enterolactone]
- Localization (matrix in which the compound was identified) [1]: Plasma, milk

Compound: CN1C[C@@H]2C[C@H]1CN2c1cc2c(cc1F)c(=O)c(C(=O)O)cn2C1CC1 [danofloxacin]
- Reduction of danofloxacin residue in ovine milk [2]: 50%
- AUC(0-inf) ([3]; control diet): 1750 ± 380 ng·h/mL
- Cmax ([3]; control diet): 310 ± 50 ng/mL
- MRT ([3]; control diet): 4.22 ± 0.73 h
- Tmax ([3]; control diet): 1.5 ± 0.5 h
- AUC(0-t) ([3]; control diet): 1740 ± 370 ng·h/mL
- AUC(0-inf) ([3]; flaxseed 10% diet): 1930 ± 250 ng·h/mL
- Cmax ([3]; flaxseed 10% diet): 310 ± 60 ng/mL
- MRT ([3]; flaxseed 10% diet): 4.77 ± 0.49 h
- Tmax ([3]; flaxseed 10% diet): 1.5 ± 0.5 h
- AUC(0-t) ([3]; flaxseed 10% diet): 1920 ± 260 ng·h/mL
- AUC(0-inf) ([3]; flaxseed 15% diet): 1810 ± 150 ng·h/mL
- Cmax ([3]; flaxseed 15% diet): 300 ± 40 ng/mL
- MRT ([3]; flaxseed 15% diet): 4.95 ± 0.39 h
- Tmax ([3]; flaxseed 15% diet): 1.16 ± 0.37 h
- AUC(0-t) ([3]; flaxseed 15% diet): 1790 ± 150 ng·h/mL
- Kp ([4]; control diet): 11 ± 1.95
- Kp ([4]; flaxseed 10% diet): 7.81 ± 2.08
- Kp ([4]; flaxseed 15% diet): 7.57 ± 2.1
- AUC(0-t) ([4]; control diet): 19200 ± 5030 ng·h/mL
- AUC(0-t) ([4]; flaxseed 10% diet): 14600 ± 1790 ng·h/mL
- AUC(0-t) ([4]; flaxseed 15% diet): 13400 ± 3070 ng·h/mL
- AUC(0-inf) ([4]; control diet): 19400 ± 5120 ng·h/mL
- Cmax ([4]; control diet): 2950 ± 740 ng/mL
- MRT ([4]; control diet): 5.35 ± 0.87 h
- Tmax ([4]; control diet): 2.66 ± 0.94 h
- AUC(0-inf) ([4]; flaxseed 10% diet): 14900 ± 1860 ng·h/mL
- Cmax ([4]; flaxseed 10% diet): 2200 ± 350 ng/mL
- MRT ([4]; flaxseed 10% diet): 5.25 ± 0.35 h
- Tmax ([4]; flaxseed 10% diet): 3 ± 1 h
- AUC(0-inf) ([4]; flaxseed 15% diet): 13700 ± 3130 ng·h/mL
- Cmax ([4]; flaxseed 15% diet): 1840 ± 440 ng/mL
- MRT ([4]; flaxseed 15% diet): 5.54 ± 0.29 h
- Tmax ([4]; flaxseed 15% diet): 2.66 ± 0.94 h
- Reduction of milk Cmax ([4]; group fed 15% flaxseed vs. control group): ~40%
- Reduction of secretion into milk / milk residue ([4]; sheep fed flaxseed diet vs. control): 25–30%
- Reduction of AUC0–24 milk-to-plasma ratio [4, 5]: 25–30%
- Reduction of milk AUC0–24 [4, 5]: 25–30%
- Reduction of milk Cmax [4, 5]: 25–30%

Compound: Enterolactone-glucuronide
- Localization (matrix in which the compound was identified) [1]: Plasma

Compound: Enterolactone-sulfate
- Localization (matrix in which the compound was identified) [1]: Plasma
